Experimental data: US11730817B2, “Pro-cyclic dinucleotides and pro-cyclic dinucleotide conjugates for cytokine induction” (INVIVOGEN, priority 2017, dated 2023)
“Also recorded” adds a separate entry of the source.

Experiments:
Type I IFNs = test: Whole-blood assay, type I IFN induction (HEK-Blue IFN-α/β-KO-STING readout); assay type: cell-based, human; settings: for induction of type I IFNs in whole-blood assay (comparison in words): healthy human donors, dose-response; for EC50: whole blood assay, type I IFN, read-out: EC50 (μM) IFN in WBA
Source text: Type I IFNs: HEK-Blue™ IFN-α/β-KO-STING: These cells, in which the STING gene has been inactivated, are derived from HEK293 cell line known as HEK-Blue™ IFN-α/β (InvivoGen catalog code: hkb-ifnab). HEK-Blue™ IFN-α/β cells enable detection of bioactive human type I IFNs through monitoring of activation of the […]. These cells were generated by stable transfection of HEK293 cells with the human STAT2 and IRF9 genes to obtain a fully active Type-I IFN signaling pathway. The other genes of the pathway (IFNAR1, IFNAR2, JAK1, TyK2 and STAT1) are naturally expressed in sufficient amounts. The cells were further transfected with a SEAP reporter gene under control of an IFNα/β-inducible ISG54 promoter. This promoter comprises five IFN-stimulated response elements (ISREs) fused to a minimal promoter of the human ISG54 gene, which is unresponsive to activators of the NF-κB or AP-1 pathways. Stimulation of HEK-Blue™ IFN-α/β cells with human IFN-α or IFN-β activates the JAK/STAT/ISGF3 pathway and subsequently induces production of SEAP. Production of type I IFNs in these cells is measured using QUANTI-Blue™.
Briefly, the samples were collected by venipuncture into sodium heparin tubes at the time of donation. The samples were analyzed for rhesus (Rh), blood group, hematocrit and serological status (AgHBS, HIV, HCV, HTLV, HBC, CMV, Syph). The tubes were picked up on the day of collection and subsequently tested (blood analysis, and treatment with test items) on the same day.
Each blood sample was diluted (1:2 [v/v]) in RPMI medium and aliquoted into 96-well plates (180-μL wells) containing either CDN (√10-fold serial dilution starting from 50 μM). The plates were incubated at 37° C. in a 5% CO2 incubator for 18 hours. Then, the supernatants were collected, transferred into the corresponding wells of round-bottom 96-well plates, and either stored at −80° C., or immediately tested in the appropriate reporter cell line.
A new 96-wells plate was prepared for each reporter cell lines tested, as follows: 10 μL of supernatant from the previous plate were added to the corresponding well in the new reporter cell plate. Then, a 190-μL aliquot of cells of the desired reporter cell line, previously harvested in medium containing heat-inactivated serum and counted, was added to each well (approximately 50,000 cells/well), and the plate was incubated for approximately 20 hours. The desired cytokine induction activity was determined using the QUANTI-Blue™ assay, as previously described. Briefly, 20 μL of supernatant from the previously incubated plate was transferred to the corresponding well of a new 96-well plate in which 180 μL of QUANTI-Blue™ reagent had previously been added.

STING = STING (Homo sapiens, UniProt Q86WV6, G230A/H232R/R293Q/R71H); test: ISG54 (IRF pathway) reporter assay in THP1-Dual cells; settings: for EC50 rank order (lipid chain length): FIG. 6, human or murine reporter cell
[1] = Lipid-based nanoparticle formation (PdI, Z Ave); assay type: physicochemical; settings: for Z Ave (nm): lipid BAM-CDN particles; for PdI: polydispersity index of lipid BAM-CDN

Chain of STING (Q86WV6 whole entry R71H/G230A/H232R/R293Q): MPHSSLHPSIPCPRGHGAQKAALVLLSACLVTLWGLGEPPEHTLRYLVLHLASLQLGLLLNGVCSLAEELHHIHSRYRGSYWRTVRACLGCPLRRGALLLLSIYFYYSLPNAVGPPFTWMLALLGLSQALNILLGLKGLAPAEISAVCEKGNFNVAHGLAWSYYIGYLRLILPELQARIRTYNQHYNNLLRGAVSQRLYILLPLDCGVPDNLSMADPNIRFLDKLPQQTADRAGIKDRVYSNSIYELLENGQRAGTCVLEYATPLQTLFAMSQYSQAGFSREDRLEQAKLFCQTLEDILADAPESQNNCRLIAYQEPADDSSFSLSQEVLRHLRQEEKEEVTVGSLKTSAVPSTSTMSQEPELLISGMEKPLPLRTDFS

Row | Compound | Fold ISG induction vs unstimulated @10 μM (STING; THP1-Dual cells) [fold] | EC50 (Type I IFNs) [µM] | Z Ave (nm) [1] [nm] | PdI [1] | also measured
1 | Nc1ncnc2c1ncn2[C@@H]1O[C@@H]2COP(=O)(S)O[C@H]3C[C@H](n4cnc5c(=O)[nH]cnc54)O[C@@H]3COP(=O)(S)O[C@H]2[C@H]1F (some centres unmarked) [CL702, reference compound] |  |  |  |  | induction of type I IFNs in whole-blood assay (comparison in words) (Type I IFNs): superior induction of type I interferons compared to the reference compound 2′3′-cGAMP
2 | CC(C)[C@H](NC(=O)OC(C)(C)C)C(=O)N[C@@H](CCCNC(N)=O)C(=O)Nc1ccc(CSP2(=O)OC[C@H]3O[C@@H](n4cnc5c(=O)[nH]cnc54)C[C@@H]3OP(=O)(SCc3ccc(NC(=O)[C@H](CCCNC(N)=O)NC(=O)[C@@H](NC(=O)OC(C)(C)C)C(C)C)cc3)OC[C@H]3O[C@@H](n4cnc5c(N)ncnc54)[C@H](F)[C@@H]3O2)cc1 (some centres unmarked) [CL793] |  |  |  |  | induction of type I IFNs in whole-blood assay (comparison in words) (Type I IFNs): superior induction of type I interferons compared to the reference compound 2′3′-cGAMP
3 | Nc1ncnc2c1ncn2[C@@H]1O[C@@H]2COP(=O)(S)O[C@H]3C[C@H](n4cnc5c(=O)[nH]cnc54)O[C@@H]3COP(=O)(O)O[C@H]2[C@H]1F (some centres unmarked) [CL797, reference compound] | 181 |  |  |  | EC50 (STING): 8150 nM
4 | CC(C)[C@H](N)C(=O)N[C@@H](C)C(=O)Nc1ccc(CSP2(=O)OC[C@H]3O[C@@H](n4cnc5c(N)ncnc54)[C@H](F)[C@@H]3OP(=O)(O)OC[C@H]3O[C@@H](n4cnc5c(O)ncnc54)C[C@@H]3O2)cc1 (some centres unmarked) [CL819] |  |  |  |  | EC50 rank order (lipid chain length) (STING): EC50 (CL819=C2-CL797)=EC50 (CL797)
5 | CCCC(=O)N[C@H](C(=O)N[C@@H](C)C(=O)Nc1ccc(CSP2(=O)OC[C@H]3O[C@@H](n4cnc5c(N)ncnc54)[C@H](F)[C@@H]3OP(=O)(O)OC[C@H]3O[C@@H](n4cnc5c(O)ncnc54)C[C@@H]3O2)cc1)C(C)C (some centres unmarked) [CL820] |  |  |  |  | EC50 rank order (lipid chain length) (STING): EC50 (CL820=C4-CL797)=EC50 (CL819=C2-CL797)=EC50 (CL797)
6 | CCCCCCCC(=O)N[C@H](C(=O)N[C@@H](C)C(=O)Nc1ccc(CSP2(=O)OC[C@H]3O[C@@H](n4cnc5c(N)ncnc54)[C@H](F)[C@@H]3OP(=O)(O)OC[C@H]3O[C@@H](n4cnc5c(O)ncnc54)C[C@@H]3O2)cc1)C(C)C (some centres unmarked) [CL821] |  | 7.1 | 54.9 | 0.27 | EC50 rank order (lipid chain length) (STING): EC50 (CL821=C8-CL797)<EC50 (CL820=C4-CL797)
7 | CC(C)[C@H](NC(=O)COCCOCCNC(=O)COCCOCCNC(=O)COCCOCCNC(=O)COCCOCCN)C(=O)N[C@H](C)C(=O)Nc1ccc(CSP2(=O)OC[C@H]3O[C@@H](n4cnc5c(N)ncnc54)[C@H](F)[C@@H]3OP(=O)(O)OC[C@H]3O[C@@H](n4cnc5c(O)ncnc54)C[C@@H]3O2)cc1 (some centres unmarked) [CL822] | 29 |  |  |  | 
8 | COC(=O)C1O[C@@H](Oc2ccc(CSP3(=O)OC[C@H]4O[C@@H](n5cnc6c(N)ncnc65)[C@H](F)[C@@H]4OP(=O)(O)OC[C@H]4O[C@@H](n5cnc6c(O)ncnc65)C[C@@H]4O3)cc2[N+](=O)[O-])C(OC(C)=O)C(OC(C)=O)[C@@H]1OC(C)=O (some centres unmarked) [CL831] | 6 |  |  |  | 
9 | CCCCCCCCCCCCCC(=O)OC(CCCCCCCCCCC)CC(=O)N[C@H](C(=O)N[C@@H](C)C(=O)Nc1ccc(CSP2(=O)OC[C@H]3O[C@@H](n4cnc5c(N)ncnc54)[C@H](F)[C@@H]3OP(=O)(O)OC[C@H]3O[C@@H](n4cnc5c(O)ncnc54)C[C@@H]3O2)cc1)C(C)C (some centres unmarked) [CL838] |  | 0.009 | 91 | 0.214 | self-organization in lipid-based nanoparticles / particle size [1]: can self-organize/assemble in lipid-based nanoparticles
10 | CCCCCCCC(=O)N[C@H](C(=O)N[C@@H](C)C(=O)Nc1ccc(CSP2(=O)OC[C@H]3O[C@@H](n4cnc5c(N)ncnc54)[C@H](F)[C@@H]3OP(=O)(S)OC[C@H]3O[C@@H](n4cnc5c(O)ncnc54)[C@H](F)[C@@H]3O2)cc1)C(C)C (some centres unmarked) [CL840] |  | 0.13 | 168.9 | 0.08 | 
11 | CCCCCCCC(=O)N[C@H](C(=O)N[C@@H](C)C(=O)Nc1ccc(CSP2(=O)OC[C@H]3O[C@@H](n4cnc5c(N)ncnc54)[C@H](F)[C@@H]3OP(=O)(O)OC[C@H]3O[C@@H](n4cnc5c(O)ncnc54)[C@H](F)[C@@H]3O2)cc1)C(C)C (some centres unmarked) [CL841] |  | 3.03 | 264.3 | 0.475 | 
12 | CCCCCCCC(=O)N[C@H](C(=O)N[C@@H](C)C(=O)Nc1ccc(CSP2(=O)OC[C@H]3O[C@@H](n4cnc5c(O)ncnc54)[C@H](F)[C@@H]3OP(=O)(SCc3ccc(NC(=O)[C@H](C)NC(=O)[C@@H](NC(=O)CCCCCCC)C(C)C)cc3)OC[C@H]3O[C@@H](n4cnc5c(N)ncnc54)[C@H](F)[C@@H]3O2)cc1)C(C)C (some centres unmarked) [CL842] |  | 1.4 | 184 | 0.086 | self-organization in lipid-based nanoparticles / particle size [1]: can self-organize/assemble in lipid-based nanoparticles
13 | CC(C)[C@H](NC(=O)CCCCCN1C(=O)C=CC1=O)C(=O)N[C@@H](C)C(=O)Nc1ccc(CSP2(=O)OC[C@H]3O[C@@H](n4cnc5c(N)ncnc54)[C@H](F)[C@@H]3OP(=O)(O)OC[C@H]3O[C@@H](n4cnc5c(O)ncnc54)C[C@@H]3O2)cc1 (some centres unmarked) [CL843] | 16 |  |  |  | 
14 | Nc1ncnc2c1ncn2[C@@H]1OC2COP(=O)(S)O[C@@H]3C(COP(=O)(O)O[C@H]2[C@H]1F)O[C@@H](n1cnc2c(=O)[nH]cnc21)[C@@H]3F (some centres unmarked) [CL845, reference compound] | 227 |  |  |  | EC50 (STING): 4570 nM
15 | COC(=O)C1O[C@@H](Oc2ccc(CSP3(=O)OC[C@H]4O[C@@H](n5cnc6c(=O)[nH]cnc65)[C@H](F)[C@@H]4OP(=O)(O)OC[C@H]4O[C@@H](n5cnc6c(N)ncnc65)[C@H](F)[C@@H]4O3)cc2NC(=O)CCCCCN2C(=O)C=CC2=O)C(OC(C)=O)C(OC(C)=O)[C@@H]1OC(C)=O (some centres unmarked) [CL847] | 132 |  |  |  | 
16 | CCCCCCCCCCCCCC(=O)OC(CCCCCCCCCCC)CC(=O)N[C@H](C(=O)N[C@@H](CCCNC(N)=O)C(=O)Nc1ccc(CSP2(=O)OC[C@H]3O[C@@H](n4cnc5c(N)ncnc54)[C@H](F)[C@@H]3OP(=O)(O)OC[C@H]3O[C@@H](n4cnc5c(O)ncnc54)[C@H](F)[C@@H]3O2)cc1)C(C)C (some centres unmarked) [CL860] |  | 0.009 | 33 | 0.248 | self-organization in lipid-based nanoparticles / particle size [1]: can self-organize/assemble in lipid-based nanoparticles; also recorded: the size tends to be smaller, around the size of Small Unilamellar Vesicle
17 | CCCCCCCCCCCCCC(=O)OC(CCCCCCCCCCC)CC(=O)N[C@H](C(=O)N[C@@H](CCCNC(N)=O)C(=O)Nc1ccc(CSP2(=O)OC[C@H]3O[C@@H](n4cnc5c(N)ncnc54)[C@H](F)[C@@H]3OP(=O)(S)OC[C@H]3O[C@@H](n4cnc5c(O)ncnc54)[C@H](F)[C@@H]3O2)cc1)C(C)C (some centres unmarked) [CL861] |  | 0.01 | 36.8 | 0.183 | self-organization in lipid-based nanoparticles / particle size [1]: can self-organize/assemble in lipid-based nanoparticles; also recorded: the size tends to be smaller, around the size of Small Unilamellar Vesicle
18 | CC(C)[C@H](NC(=O)[C@@H](CN)N1C(=O)C=CC1=O)C(=O)N[C@@H](C)C(=O)Nc1ccc(CSP2(=O)OC[C@H]3O[C@@H](n4cnc5c(N)ncnc54)[C@H](F)[C@@H]3OP(=O)(S)OC[C@H]3O[C@@H](n4cnc5c(O)ncnc54)[C@H](F)[C@@H]3O2)cc1 (some centres unmarked) [CL874] | 156 |  |  |  | % activity (vs cGAMP) (STING): 297%; ISG activity (STING; THP1-Dual cells): retains full 15G activity
